The record followed here is patent US10357468B2, “Medicaments for slowing Parkinson's disease” (BIAL—PORTELA & CA, S.A., priority 2014, dated 2019).

Data set [1] relates to PD patients. In words: 1-year open label extension of placebo-controlled double-blind trials of opicapone with levodopa and AADC inhibitor (Examples 1A, 1B). In kind it is in vivo, human.
A short description of data set [2]: Tolerability in the Example 2 study. To be noted: OPC 25, 50 and 75 mg QD for 11 days.

Turning to `Cc1c(Cl)c(C)[n+]([O-])c(Cl)c1-c1noc(-c2cc(O)c(O)c([N+](=O)[O-])c2)n1` [opicapone, 5-[3-(2,5-dichloro-4,6-dimethyl-1-oxy-pyridin-3-yl)-[1,2,4]oxadiazol-5-yl]-3-nitrobenzene-1,2-diol], the “difference in OFF time” value in data set [1] (PD patients, at least 12 months post commencement of treatment with opicapone (with levodopa and AADCi), FIG. 1) was “approximately −2.0 hrs”. Moreover, the “difference in ON time without troublesome dyskinesia” value in data set [1] (PD patients, at least 12 months post commencement of treatment with opicapone (with levodopa and AADCi), FIG. 2) was “approximately +1.5 hr”. Also, the “progression of PD” value in data set [1] (patients treated with opicapone from an earlier stage compared with groups naïve to opicapone, once a day at bedtime) was “progressed less”. In addition, in data set [2], the tolerability profile entry was “favourable”.
